According to patent US7868047B2, “Anti-inflammatory and psoriasis treatment and protein kinase inhibition by hydroxy stilbenes and novel stilbene derivatives and analogues” (Welichem Biotech Inc., priority 1999, dated 2011):

Legend:
psoriasis = assay: 1% cream on volunteers with psoriasis; format: in vivo, human; settings: topical, once per day, vs control cream
Protocol: The biological activity of the compounds of this invention can be determined by measurement of the effect of the test compound in vivo because there is no animal model suitable for the diseases. The compounds were tested on volunteers. In these tests, representative compound of this invention, i.e., 3,5-dihydroxy-4-isopropylstilbene is active in reducing or eliminating symptoms of psoriasis and eczema.
A 1% cream of 3,5-dihydroxy-4-isopropylstilbene was prepared for tests on volunteers. Three volunteers, each with a long psoriasis history, were recruited for the tests. Neither of them was on any medication a month before the initiation of the test.
Volunteer 1, person, with scalp psoriasis for more than 15 years. They had used various conventional drugs and treatments, include, steroids, phototherapy and other medicine during the course of their illness. All of these treatments had no or very limited effect on this psoriasis.
Volunteer 2, person, with plaques on their back. They had used hydrocortisone before and stopped using it because of side effects.
The volunteers were treated once per day by applying the creams once per day on top of the affected area with the basic cream as the control (except for volunteer 3). […] The cream of the invention contained 1% 3,5-dihydroxy-4-isopropylstilbene. The control cream was identical except that it contained no 3,5-dihydroxy-4-isopropylstilbene. […]

eczema = assay: 1% cream on volunteer with eczema; format: in vivo, human; settings: topical, right side, control triamcinolone acetonide 0.5% left side
TPA-induced ear edema = TPA-induced ear edema model; format: in vivo, mouse; settings: 0.3% single topical, TPA 0.01%, ear thickness 6 hours after TPA
Protocol: Experiment: Three representative compounds, 5-(2-phenylethenyl)-2-1-propyl-1,3-benzenediol, as previously reported, a closely related stilbene derivative (WO 0142231) and compound 39B, a novel compound of the current invention, were assayed against the edema on female mice (Balb/c) aged 10-12 weeks, using 0.01% Calcitriol (a commercial standard) as a positive control. Phorbol-12-myristate-13-acetate (TPA) was used as the edema inducer. TPA and the test compounds were all dissolved in 100% ethanol and 20 μl applied on the right ear of the mouse with six mice per group. The TPA concentration used was 0.01% (w/v). Ear thickness was measured 6 hours after TPA treatment to determine if edema was decreased. In each experiment replicated groups of TPA treated mice were treated with either 5-(2-phenylethenyl)-2-1-propyl-1,3-benzenediol, Calcitriol, compound 39B or only ethanol, and the level of inhibition was obtained by measuring the thickness of the ear and expressing the difference in thickness of the treated ear from that of the ethanol treated ear, as a percentage.

DSS-induced IBD = assay: DSS (2%) IBD mouse model, preventive experiment; format: in vivo; settings: 500 mg/kg/day oral with 2% DSS, day 7
Protocol: To assess the in vivo efficacy for preventive and therapeutic activities of these compounds on IBD, two experiments were designed and tested using the dextran sulfate sodium (DSS) experimental mouse model for human IBD. For the preventive experiment, compounds 9A and 39B were simultaneously administrated orally with 2% DSS at the dose of 500 mg/kg/day. Vehicle alone and glucocorticoid (dexamethasone 20 mg/kg/day) were used as controls. At day 7, mice were sacrificed, examined for stool appearance, diarrhea and colon macroscopic damage including ulceration, inflammation and adhesion. Colon samples were also taken and fixed in 10% formalin for histological assessment of architecture, ulceration, inflammation and serosal damage.

[1] = system: acute colon inflammation induced by 5% DSS; assay: DSS (5%) acute colon inflammation mouse model, therapeutic experiment; format: in vivo; settings: for Bleeding score / Diarrheal score: day seven, mean ± SEM, n = 9, 1 = normal; for Bleeding score: 2 = bloody stool, 4 = gross bleeding; for Diarrheal score: 2 = loose stools, 4 = diarrhea
Description: To assess the in vivo efficacy for preventive and therapeutic activities of these compounds on IBD, two experiments were designed and tested using the dextran sulfate sodium (DSS) experimental mouse model for human IBD.
For the therapeutic experiment a further experiment was done to test different doses of 9A on severe, acute intestinal inflammation in mice induced by a high dose of DSS (5%). In this experiment, drug treatment started from day 3 post DSS induction when disease symptom was established. 9A (200 mg/kg or 100 mg/kg) was administered through oral […] once daily and a commercial drug, sulfasalazine (SASP, 100 mg/kg/day) was used as positive control. Experiment was terminated at day 7 and the efficacy was assessed.

## CC(C)c1c(O)cc(/C=C/c2ccccc2)cc1O [Compound 9A, 3,5-Dihydroxy-4-isopropyl-trans-stilbene]
psoriasis
  effect on psoriasis, volunteer 1 (scalp psoriasis): completely clearance in 7 days
  effect on psoriasis, volunteer 2 (plaques on back): significant improvement of the psoriasis
eczema
  effect on eczema, volunteer 3: disease symptoms completely disappeared by week 2
TPA-induced ear edema
  % edema inhibition: 8%
DSS-induced IBD
  macroscopic and microscopic diseases scores: significantly decreased
[1]; 100 mg/kg oral daily
  Bleeding score: 3.3 ± 0.37
  Diarrheal score: 2.0 ± 0.73
[1]; 200 mg/kg oral daily
  Bleeding score: 3.2 ± 0.49
  Diarrheal score: 2.4 ± 0.45
[1]; 5% DSS, treatment from day 3
  survival rate vs control treatment: significantly higher survival rate
[1]; daily oral treatment from day 3 post 5% DSS, vehicle control 33%
  survival rate: 67%
